Reference: patent US4208414A, “Vinblastine in rheumatoid arthritis” (Eli Lilly and Company, priority 1979, dated 1980)
Where a name gives a salt, the structure may show the parent alone.

Columns and labels:
[1] = pigeons or chickens, intertarsal joint; cited from earlier work
[2] = mice; cited from earlier work
twine granuloma assay = assay type: in vivo; settings: female rats
Description: Vinblastine is also active in other assays designed to detect anti-arthritic activity as, for example, the twine granuloma assay in female rats.

[3] = intravenous; pleural cavity; cited from earlier work
[4] = dogs pretreated with vinblastine; cited from earlier work
[5] = adjuvant-induced arthritis assay in rats; assay type: in vivo, female Wistar-Lewis rats; settings: for Inhibition of Swelling, Mean Difference, Injected Paw / Inhibition of Swelling, Mean Difference, Uninjected Paw: Table 3; for inhibiting induced arthritis, drug alone: at the dose levels used in combination; for Percent Inhibition Swelling, Injected Paw / Percent Inhibition Swelling, Uninjected Paw: day 16; for Percent Inhibition of Swelling, Injected Paw / Percent Inhibition of Swelling, Uninjected Paw: Table 2
[6] = antiarthritic activity relative to vinblastine, parenteral; assay type: in vivo; settings: parenteral administration
[7] = weight loss / deaths as a measure of toxicity in the adjuvant arthritis experiments
Experimental: Similar experiments were carried out with vinblastine-fenoprofen combinations and a vinblastine-indomethacin combination, again using adjuvant arthritis as a model. In this first determination, vinblastine was, as before, given on the 10th day, but fenoprofen, as the calcium salt, was given both from day 0 through day 15 and from day 10 through day 15. Controls utilizing each drug alone were employed as well as a saline control. […] In the vinblastine-indomethacin experiment, vinblastine was given on day 11 and indomethacin daily from days 11 to day 16.

[8] = Table 1 Section B, fenoprofen 5 mg/kg, days 10-15
[9] = Table 2, vinblastine sulfate 3 mg/kg day 10
[10] = Table 1 Section A, 3 mg/kg, given on 10th day
[11] = Table 1 Section A, 6 mg/kg, given on 10th day
[12] = Table 1 Section A, 9 mg/kg, given on 10th day
[13] = Table 1 Section A, 9 mg/kg, given on 10th day, * decrease from previous value
[14] = Table 1 Section A, 12 mg/kg, given on 10th day, * decrease from previous value
[15] = Table 1 Section B, vinblastine sulfate 6 mg/kg, 10th day
[16] = vinblastine sulfate 3 mg/kg, day 10, p = 1

## CC[C@]1(O)C[C@@H]2CN(CCc3c([nH]c4ccccc34)[C@@](C(=O)OC)(c3cc4c(cc3OC)N(C)[C@H]3[C@@](O)(C(=O)OC)[C@H](OC(C)=O)[C@]5(CC)C=CCN6CC[C@]43[C@@H]65)C2)C1 [Vinblastine]
[1]
  inhibition of the arthritic response: no inhibition of the arthritic response
[2]
  depression of paw swelling: significant depression of paw swelling
Twine granuloma assay
  activity in twine granuloma assay: active
[3]
  effect on inflammation: may have a suppressive effect
[4]
  inflammatory response: almost completely abolished
  leukocyte depletion: profound leukocyte depletion
  significant phagocyte accumulation: prevented
[5]; summary statement
  activity in the adjuvant arthritis assay: active in the adjuvant arthritis assay

## CC[C@]1(O)C[C@H]2CN(CCc3c([nH]c4ccccc34)[C@@](C(=O)OC)(c3cc4c(cc3OC)N(C=O)[C@H]3[C@@](O)(C(=O)OC)[C@H](OC(C)=O)[C@]5(CC)C=CCN6CC[C@]43[C@@H]65)C2)C1 [vincristine]
[6]
  antiarthritic activity relative to VLB: about 10 times more active
[1]
  inhibition of the arthritic response: no inhibition of the arthritic response
[2]
  depression of paw swelling: significant depression of paw swelling

## COc1ccc2c(c1)c(CC(=O)O)c(C)n2C(=O)c1ccc(Cl)cc1 [Indomethacin]
[5]; indomethacin 0.25 mg/kg, p = 0.11
  Inhibition of Swelling, Mean Difference, Injected Paw: 0.59
[5]; indomethacin 0.25 mg/kg, p = 1
  Inhibition of Swelling, Mean Difference, Uninjected Paw: 0.56
[5]
  inhibiting induced arthritis, drug alone: neither drug alone is effective

## CC(C(=O)O)c1cccc(Oc2ccccc2)c1 (racemic) [Fenoprofen (Ca salt), dl-α-methyl-3-phenoxybenzeneacetic acid]
[7]; Table 2 footnote, 2.5 mg/kg days 0-15, at day 16
  death: one death
[5]; [8]
  Average Increase in Swelling, Injected Paw, Day 0-10: 0.502
  Average Increase in Swelling, Injected Paw, Day 10-16: 0.692
  Average Increase in Swelling, Uninjected Paw, Day 0-10: 0.188
  Average Increase in Swelling, Uninjected Paw, Day 10-16: 0.274
[5]; Table 1 Section B, fenoprofen 5 mg/kg, days 10-15, p = 0.074
  Percent Inhibition Swelling, Injected Paw: 41.11%
[5]; Table 1 Section B, fenoprofen 5 mg/kg, days 10-15, p = 0.282
  Percent Inhibition Swelling, Uninjected Paw: 51.93%
[5]; fenoprofen Ca salt 2.5 mg/kg days 0-15, p = 0.196
  Percent Inhibition of Swelling, Injected Paw: 34.9%
[5]; fenoprofen Ca salt 2.5 mg/kg days 0-15, p = 0.645
  Percent Inhibition of Swelling, Uninjected Paw: 17.4%
[5]; fenoprofen Ca salt 5 mg/kg days 10-15, p = 0.385
  Percent Inhibition of Swelling, Uninjected Paw: 27.2%
[5]; fenoprofen Ca salt 5 mg/kg days 10-15, p = 0.58
  Percent Inhibition of Swelling, Injected Paw: 40.3%
[5]
  inhibiting induced arthritis, drug alone: neither drug alone is effective

## CC[C@]1(O)C[C@@H]2CN(CCc3c([nH]c4ccccc34)[C@@](C(=O)OC)(c3cc4c(cc3OC)N(C)[C@H]3[C@@](O)(C(=O)OC)[C@H](OC(C)=O)[C@]5(CC)C=CCN6CC[C@]43[C@@H]65)C2)C1 [Vinblastine sulfate]
[7]; [9]
  Wt. Loss, Day 0-16: -22.3 grams
  Wt. Loss, Day 10-16: -22.6 grams
[7]; Table 3, vinblastine sulfate 3 mg/kg, day 10
  Wt. Loss, Day 10-17: 28.9 grams
[5]; [10]
  Average Increase in Swelling, Injected Paw, Day 0-10: 0.554
  Average Increase in Swelling, Injected Paw, Day 10-16: 0.722
  Average Increase in Swelling, Uninjected Paw, Day 0-10: 0.024
  Average Increase in Swelling, Uninjected Paw, Day 10-16: 0.574
[5]; Table 1 Section A, 3 mg/kg, given on 10th day, p = 0.097
  Percent Inhibition Swelling, Injected Paw: 38.55%
[5]; Table 1 Section A, 3 mg/kg, given on 10th day, p = 0.987
  Percent Inhibition Swelling, Uninjected Paw: 0%
[5]; [11]
  Average Increase in Swelling, Injected Paw, Day 0-10: 0.498
  Average Increase in Swelling, Injected Paw, Day 10-16: 0.188
  Average Increase in Swelling, Uninjected Paw, Day 0-10: 0.038
[5]; Table 1 Section A, 6 mg/kg, given on 10th day, p = 0.001
  Percent Inhibition Swelling, Injected Paw: 84.00%
[5]; Table 1 Section A, 6 mg/kg, given on 10th day, p = 0.077
  Percent Inhibition Swelling, Uninjected Paw: 74.39%
[5]; [12]
  Average Increase in Swelling, Injected Paw, Day 0-10: 0.492
  Average Increase in Swelling, Uninjected Paw, Day 0-10: 0.230
[5]; [13]
  Average Increase in Swelling, Injected Paw, Day 10-16: -0.096
  Average Increase in Swelling, Uninjected Paw, Day 10-16: -0.232
[5]; Table 1 Section A, 9 mg/kg, given on 10th day, p = 0.000
  Percent Inhibition Swelling, Injected Paw: 100.0%
[5]; Table 1 Section A, 9 mg/kg, given on 10th day, p = 0.004
  Percent Inhibition Swelling, Uninjected Paw: 100.00%
[5]; Table 1 Section A, 12 mg/kg, given on 10th day
  Average Increase in Swelling, Injected Paw, Day 0-10: 0.698
[5]; [14]
  Average Increase in Swelling, Injected Paw, Day 10-16: -0.108
  Average Increase in Swelling, Uninjected Paw, Day 0-10: -0.102
  Average Increase in Swelling, Uninjected Paw, Day 10-16: -0.048
[5]; Table 1 Section A, 12 mg/kg, given on 10th day, p = 0.000
  Percent Inhibition Swelling, Injected Paw: 100.00%
[5]; Table 1 Section A, 12 mg/kg, given on 10th day, p = 0.027
  Percent Inhibition Swelling, Uninjected Paw: 100.00%
[5]; [15]
  Average Increase in Swelling, Injected Paw, Day 0-10: 0.498
  Average Increase in Swelling, Injected Paw, Day 10-16: 0.188
  Average Increase in Swelling, Uninjected Paw, Day 0-10: 0.030
[5]; Table 1 Section B, vinblastine sulfate 6 mg/kg, 10th day, p = 0.001
  Percent Inhibition Swelling, Injected Paw: 84.00%
[5]; Table 1 Section B, vinblastine sulfate 6 mg/kg, 10th day, p = 0.077
  Percent Inhibition Swelling, Uninjected Paw: 74.39%
[5]; vinblastine sulfate 3 mg/kg day 10, p = 0.724
  Percent Inhibition of Swelling, Injected Paw: 8.22%
[5]; vinblastine sulfate 3 mg/kg day 10, p = 0.764
  Percent Inhibition of Swelling, Uninjected Paw: 12.0%
[5]; [16]
  Inhibition of Swelling, Mean Difference, Injected Paw: 1.00
  Inhibition of Swelling, Mean Difference, Uninjected Paw: 0.41
[5]
  inhibiting induced arthritis, drug alone: neither drug alone is effective
